In publication PMC11855827, “High-Throughput Screening of Five Compound Libraries for Anthelmintic Activity and Toxicity Leads to the Discovery of Two Flavonoid Compounds” (International Journal of Molecular Sciences, 2025):
Values joined by “and” are separate entries in the source; they are usually repeats but may differ in a detail not shown here. Equal values may be shown once.

Tested on: C. elegans
Settings: Table S2, C. elegans SS assay, 110 μM, averages of 4 data points

| Compound | Percentage of motility inhibition 0 h [%] | Percentage of motility inhibition 24 h |
| --- | --- | --- |
| COC(=O)C1=CO[C@@H](C)[C@H]2CN3CCc4c([nH]c5ccccc45)[C@@H]3C[C@H]12 [Ajmalicine] | 0 | 1% |
| C[C@]1(O)C[C@@H](O)[C@@H]2C=CO[C@@H](O[C@@H]3O[C@H](CO)[C@@H](O)[C@H](O)[C@H]3O)[C@@H]21 [Ajugol] | 0 | 2% |
| C=C1C(=O)O[C@@H]2C[C@@]3(C)CCC[C@H](C)C3=C[C@H]12 [Alantolactone] | 6 | 29% |
| C[C@]12C[C@@H](O)[C@@H]3C[C@@]1(O[C@@H]1O[C@H](CO)[C@@H](O)[C@H](O)[C@H]1O)[C@@]3(COC(=O)c1ccccc1)C(=O)O2 [Albiflorin] | 0 | 2% |
| CC(=O)O[C@H]([C@@H](O)C[C@@H](C)C1=C2C[C@H](O)[C@H]3[C@@]4(C)CCC(=O)C(C)(C)[C@@H]4CC[C@]3(C)[C@@]2(C)CC1)C(C)(C)O [Alisol A 24-acetate] | 3 | 23% |
| CC(=O)O[C@@H](C[C@@H](C)C1=C2C[C@H](O)[C@H]3[C@@]4(C)CCC(=O)C(C)(C)[C@@H]4CC[C@]3(C)[C@@]2(C)CC1=O)[C@H]1OC1(C)C [Alisol C 23-acetate] | 0 | 17% |
| C[C@@H]1C[C@@H]([C@@H](O)C(C)(C)O)O[C@H]2C[C@@]3(C)C(=C12)C[C@H](O)[C@H]1[C@@]2(C)CCC(=O)C(C)(C)[C@@H]2CC[C@@]13C [Alisol F] | 0 | 11% |
| O=C1CCC[C@@H]2[C@H]3CCCN4CCC[C@@H](CN12)[C@H]34 [Allomatrine] | 0 | 0% |
| O=C1C=C2C=C[C@@H]3C[C@@]2(O1)[C@@H]1CCCCN31 [Allosecurinine] | 23 | 29% |
| C1=C2CCCN[C@H]2[C@@H]2C[C@H]1[C@H]1CCCCN1C2 [Aloperine] | 20 | 0% |
| Cl.NC12CC3CC(CC(C3)C1)C2 [Amantadine (hydrochloride)] | 42 | 2% |
| C=C[C@H]1[C@H](O[C@@H]2O[C@H](CO)[C@@H](O)[C@H](O)[C@H]2OC(=O)c2c(O)cc(O)cc2-c2cccc(O)c2)OC=C2C(=O)OCC[C@]21O [Amaroswerin] | 0 | 0% |
| CC1(C)CCC[C@]2(C)[C@H]3CCO[C@]3(C)CC[C@@H]12 [Ambroxide] | 8 | 14% |
| NCC[C@H](O)C(=O)N[C@@H]1C[C@H](N)[C@@H](O[C@H]2O[C@H](CN)[C@@H](O)[C@H](O)[C@H]2O)[C@H](O)[C@H]1O[C@H]1O[C@H](CO)[C@@H](O)[C@H](N)[C@H]1O.O=S(=O)(O)O.O=S(=O)(O)O [Amikacin (sulfate)] | 0 | 3% |
| CC1(C)[C@@H](O[C@H]2O[C@H](C(=O)O)[C@@H](O)[C@H](O)[C@H]2O[C@@H]2O[C@H](C(=O)O)[C@@H](O)[C@H](O)[C@H]2O)CC[C@]2(C)[C@H]3C(=O)C=C4[C@@H]5C[C@@](C)(C(=O)O)CC[C@]5(C)CC[C@@]4(C)[C@]3(C)CC[C@@H]12 [Ammonium glycyrrhizinate] | 20 | 11% |
| CCC(C)(C)c1ccc(CC(C)CN2C[C@@H](C)O[C@@H](C)C2)cc1.Cl (stereo partly shown) [Amorolfine (hydrochloride)] | 20 | 9% |
| CC1(C)S[C@@H]2[C@H](NC(=O)[C@H](N)c3ccc(O)cc3)C(=O)N2[C@H]1C(=O)[O-].[Na+] [Amoxicillin (sodium)] | 29 | 10% |
| CC1(C)S[C@@H]2[C@H](NC(=O)[C@H](N)c3ccc(O)cc3)C(=O)N2[C@H]1C(=O)O.O.O.O [Amoxicillin (trihydrate)] | 27 | 0% |
| CC1(C)S[C@@H]2[C@H](NC(=O)[C@H](N)c3ccccc3)C(=O)N2[C@H]1C(=O)[O-].[Na+] [Ampicillin (sodium)] | 24 | 1% |
| CCCc1ncc(C[n+]2ccccc2C)c(N)n1.Cl.[Cl-] [Amprolium (hydrochloride)] | 12 | 0% |

| Compound | Percentage of motility inhibition 0 h [%] | Percentage of motility inhibition 24 h |
| --- | --- | --- |
| COc1ccc2c(c1OC)C(OC)N(C)c1c-2ccc2cc3c(cc12)OCO3 (stereo not shown) [Angoline] | 0 | 0% |
| Br.CN1[C@H]2C[C@H](OC(=O)[C@H](CO)c3ccccc3)C[C@@H]1[C@@H](O)C2 [Anisodamine (hydrobromide)] | 0 | 1% |
| CN1[C@H]2C[C@H](OC(=O)[C@H](CO)c3ccccc3)C[C@@H]1[C@@H](O)C2 [Anisodamine] | 10 | 5% |
| COc1ccc(C[C@H]2NC[C@H](O)[C@H]2OC(C)=O)cc1 [Anisomycin] | 10 | 44% |
| CC(C)(C)OC(=O)N1CCC[C@H]1c1nc(C(=O)O)cs1 [Antibiotic‐5d] | 0 | 0% |
| O=C1CC[C@H](NC(=O)Cc2ccccc2)C(=O)N1 [Antineoplaston A10] | 0 | 0% |
| O=c1cc(-c2ccc(O)cc2)oc2cc(O[C@@H]3O[C@H](CO)[C@@H](O)[C@H](O)[C@H]3O)cc(O)c12 [Apigenin 7‐glucoside] | 10 | 40% |
| CC1OC(OC2C(Oc3cc(O)c4c(=O)cc(-c5ccc(O)cc5)oc4c3)OC(COC3OC(CO)C(O)C(O)C3O)C(O)C2O)C(O)C(O)C1O (stereo not shown) [Apigenin‐7‐O‐(2G‐rhamnosyl)gentiobioside] | 10 | 0% |
| O=C(O)[C@H]1O[C@@H](Oc2cc(O)c3c(=O)cc(-c4ccc(O)cc4)oc3c2)[C@H](O)[C@@H](O)[C@@H]1O [Apigenin‐7‐glucuronide] | 23 | 3% |
| C=C(C(=O)OC1C[C@@H]2[C@H]3O[C@H]3[C@H](C1)N2C)c1ccccc1 (stereo partly shown) [Aposcopolamine] | 14 | 10% |
| CN[C@@H]1[C@@H](O[C@H]2O[C@H](CO)[C@@H](N)[C@H](O)[C@H]2O)OC2C[C@@H](N)[C@@H](O[C@H]3[C@H](O)[C@@H](O)[C@H](N)C[C@@H]3N)OC2[C@@H]1O (stereo partly shown) [Apramycin (sulfate)] | 29 | 2% |
| CC1(C)CC[C@]2(C(=O)O[C@@H]3O[C@H](CO)[C@@H](O)[C@H](O)[C@H]3O)CC[C@]3(C)C(=CC[C@@H]4[C@@]5(C)CC[C@H](O[C@@H]6O[C@H](C(=O)O)[C@@H](O[C@@H]7O[C@@H](CO)[C@H](O)[C@H]7O)[C@H](O)[C@H]6O)C(C)(C)[C@@H]5CC[C@]43C)[C@@H]2C1 [Araloside A] | 6 | 0% |
| CCOC(=O)c1c(CSc2ccccc2)n(C)c2cc(Br)c(O)c(CN(C)C)c12.Cl [Arbidol (hydrochloride)] | 33 | 3% |
| CC1(C)[C@@H](O[C@@H]2OC[C@H](O[C@@H]3O[C@H](CO)[C@@H](O)[C@H](O)[C@H]3O[C@@H]3OC[C@@H](O)[C@H](O)[C@H]3O)[C@H](O)[C@H]2O[C@@H]2O[C@H](CO)[C@@H](O)[C@H](O)[C@H]2O)CC[C@]2(C)[C@H]3CC[C@]45OC[C@@]6(CC[C@](C)(C=O)C[C@H]64)[C@H](O)C[C@@]5(C)[C@]3(C)CC[C@@H]12 [Ardisiacrispin A] | 22 | 0% |
| CN1CCC=C(C(=O)O)C1.Cl [Arecaidine (hydrochloride)] | 7 | 6% |
| CN1CCC=C(C(=O)O)C1 [Arecaidine] | 16 | 0% |
| COc1cccc2c1cc([N+](=O)[O-])c1c(C(=O)O)cc3c(c12)OCO3 [Aristolochic acid A] |  | 22% and 11% |
| CC1(C)CC[C@]2(C(=O)O[C@@H]3O[C@H](CO)[C@@H](O)[C@H](O)[C@H]3O)CC[C@]3(C)C(=CC[C@@H]4[C@@]5(C)C[C@@H](O)[C@H](O)C(C)(C)[C@@H]5CC[C@]43C)[C@@H]2[C@@H]1O [Arjunetin] | 0 | 18% |
| COc1cc2c(cc1OC)C(Cc1ccc(O)cc1)N(C)CC2 (stereo not shown) [Armepavine] | 0 | 12% |
| CC(=O)c1cc2c(CO)cc(O)cc2oc1=O [Armillarisin A] | 0 | 4% |
